Experimental data from ChEMBL document CHEMBL4334471, “Discovery of 1,8-disubstituted-[1,2,3]triazolo[4,5-c]quinoline derivatives as a new class of Hippo signaling pathway inhibitors” (Bioorg Med Chem Lett, 2019).

Experiments:
[1] = target: Dual specificity tyrosine-phosphorylation-regulated kinase 3 (Homo sapiens) (UniProt O43781); experiment: Inhibition of recombinant human DYRK3 assessed as residual activity at 10 uM using RRRFRPASPLRGPP as substrate at 40 mins in presence of [gamma-33ATP] by scintillation counting based radiometry assay relative to control
[2] = tested on: Tyrosine-protein kinase receptor UFO (Homo sapiens), P30530 [Q764R]; experiment: Inhibition of recombinant human Axl Q764R mutant (473 to end residues) assessed as residual activity at 10 uM using KKSRGDYMTMQIG as substrate incubated for 40 mins in presence of [gamma-33ATP] by scintillation counting based radiometry assay relative to control
[3] = target: Mitogen-activated protein kinase 9 (Homo sapiens) (UniProt P45984); experiment: Inhibition of human JNK2alpha2 assessed as residual activity at 10 uM using ATF2 as substrate after 40 mins by [gamma-33ATP] radiometric assay relative to control
[4] = target: Serine/threonine-protein kinase MAK (Homo sapiens) (UniProt P20794); experiment: Inhibition of recombinant human MAK assessed as residual activity at 10 uM using RRRFRPASPLRGPPK as substrate after 120 mins in presence of [gamma-33ATP] by scintillation counting based radiometry assay relative to control
[5] = target: Tyrosine-protein kinase Blk (Mus musculus) (UniProt P16277); experiment: Inhibition of recombinant full length mouse BLK assessed as residual activity at 10 uM using poly(Glu, Tyr) 4:1 as substrate incubated for 40 mins in presence of [gamma-33ATP] by scintillation counting based radiometry assay relative to control
[6] = tested on: Hepatocyte growth factor receptor (Homo sapiens), P08581 [Y1230D]; experiment: Inhibition of recombinant human MET A1209G/V1290L/Y1248D mutant (974 to end residues) assessed as residual activity at 10 uM using KKKGQEEEYVFIE as substrate incubated for 40 mins in presence of [gamma-33ATP by scintillation counting based radiometry assay relative to control
[7] = target: Phosphatidylinositol 4-phosphate 3-kinase C2 domain-containing subunit alpha (Homo sapiens) (UniProt O00443); experiment: Inhibition of recombinant human PI3KC2alpha (299 to end residues) assessed as residual activity at 10 uM using phosphatidylinositol as substrate incubated for 40 mins in presence of [gamma33P]ATP by scintillation counting based radiometry assay relative to control
[8] = target: Calcium/calmodulin-dependent protein kinase type II subunit beta (Homo sapiens) (UniProt Q13554); experiment: Inhibition of recombinant human CaMK2beta (1 to 315 residues) assessed as residual activity at 10 uM using […] incubated for 40 mins in presence of [gamma-33ATP] by scintillation counting based radiometry assay relative to control
[9] = tested on: Discoidin domain-containing receptor 2 (Homo sapiens), Q16832 [UNDEFINED MUTATION]; experiment: Inhibition of recombinant human DDR2 S642A mutant (467 to end residues) assessed as residual activity at 10 uM using KKSRGDYMTMQIG as substrate at 40 mins in presence of [gamma-33ATP] by scintillation counting based radiometry assay relative to control
Mus musculus = organism: Mus musculus; experiment: Inhibition of recombinant full length mouse PI3K p110/p65 assessed as residual activity at 10 uM using phosphatidylinositol-4, 5-bisphosphate as substrate incubated for 40 mins in presence of [gamma33P]ATP by scintillation counting based radiometry assay relative to control
[10] = tested on: Hepatocyte growth factor receptor (Homo sapiens), P08581 [D1228H]; experiment: Inhibition of recombinant human MET A1209G/V1290L/D1246H mutant (974 to end residues) assessed as residual activity at 10 uM using KKKGQEEEYVFIE as substrate incubated for 40 mins in presence of [gamma-33ATP by scintillation counting based radiometry assay relative to control
[11] = target: Serine/threonine-protein kinase Chk2 (Homo sapiens) (UniProt O96017); experiment: Inhibition of recombinant human CHK2 (5 to end residues) assessed as residual activity at 10 uM using KKKVSRSGLYRSPSMPENLNRPR as substrate incubated for 40 mins in presence of [gamma-33ATP] by scintillation counting based radiometry assay relative to control
[12] = target: Dual specificity tyrosine-phosphorylation-regulated kinase 2 (Homo sapiens) (UniProt Q92630); experiment: Inhibition of recombinant human DYRK2 assessed as residual activity at 10 uM using casein as substrate at 40 mins in presence of [gamma-33ATP] by scintillation counting based radiometry assay relative to control
[13] = target: Mitogen-activated protein kinase kinase kinase 11 (Homo sapiens) (UniProt Q16584); experiment: Inhibition of recombinant human MLK3 assessed as residual activity at 10 uM using by scintillation counting based radiometry assay relative to control
[14] = target: Transient receptor potential cation channel subfamily M member 7 (Homo sapiens) (UniProt Q96QT4); experiment: Inhibition of recombinant human CHAK1 (1180 to end residues) assessed as residual activity at 10 uM using myelin basic protein as substrate incubated for 40 mins in presence of [gamma-33ATP] by scintillation counting based radiometry assay relative to control
[15] = target: Insulin-like growth factor 1 receptor (Homo sapiens) (UniProt P08069); experiment: Inhibition of human IGF1R activated (959 to end residues) assessed as residual activity at 10 uM using KKKSPGEYVNIEFG as substrate after 40 mins by [gamma-33ATP] radiometric assay relative to control
[16] = target: 5'-AMP-activated protein kinase catalytic subunit alpha-1 (Homo sapiens) (UniProt Q13131); experiment: Inhibition of recombinant full length human AMPKalpha1 assessed as residual activity at 10 uM using AMARAASAAALAR as substrate incubated for 40 mins in presence of [gamma-33ATP] by scintillation counting based radiometry assay relative to control
[17] = target: Ephrin type-A receptor 7 (Homo sapiens) (UniProt Q15375); experiment: Inhibition of recombinant human EphA7 (613 to 909 residues) assessed as residual activity at 10 uM using KTFCGTPEYLAPEVRREPRILSEEEQEMFRDFDYIADWC as substrate at 40 mins in presence of [gamma-33ATP] by scintillation counting based radiometry assay relative to control
Ephrin type-A receptor 7 (Homo sapiens), sequence (Q15375 28-998 limits assumed): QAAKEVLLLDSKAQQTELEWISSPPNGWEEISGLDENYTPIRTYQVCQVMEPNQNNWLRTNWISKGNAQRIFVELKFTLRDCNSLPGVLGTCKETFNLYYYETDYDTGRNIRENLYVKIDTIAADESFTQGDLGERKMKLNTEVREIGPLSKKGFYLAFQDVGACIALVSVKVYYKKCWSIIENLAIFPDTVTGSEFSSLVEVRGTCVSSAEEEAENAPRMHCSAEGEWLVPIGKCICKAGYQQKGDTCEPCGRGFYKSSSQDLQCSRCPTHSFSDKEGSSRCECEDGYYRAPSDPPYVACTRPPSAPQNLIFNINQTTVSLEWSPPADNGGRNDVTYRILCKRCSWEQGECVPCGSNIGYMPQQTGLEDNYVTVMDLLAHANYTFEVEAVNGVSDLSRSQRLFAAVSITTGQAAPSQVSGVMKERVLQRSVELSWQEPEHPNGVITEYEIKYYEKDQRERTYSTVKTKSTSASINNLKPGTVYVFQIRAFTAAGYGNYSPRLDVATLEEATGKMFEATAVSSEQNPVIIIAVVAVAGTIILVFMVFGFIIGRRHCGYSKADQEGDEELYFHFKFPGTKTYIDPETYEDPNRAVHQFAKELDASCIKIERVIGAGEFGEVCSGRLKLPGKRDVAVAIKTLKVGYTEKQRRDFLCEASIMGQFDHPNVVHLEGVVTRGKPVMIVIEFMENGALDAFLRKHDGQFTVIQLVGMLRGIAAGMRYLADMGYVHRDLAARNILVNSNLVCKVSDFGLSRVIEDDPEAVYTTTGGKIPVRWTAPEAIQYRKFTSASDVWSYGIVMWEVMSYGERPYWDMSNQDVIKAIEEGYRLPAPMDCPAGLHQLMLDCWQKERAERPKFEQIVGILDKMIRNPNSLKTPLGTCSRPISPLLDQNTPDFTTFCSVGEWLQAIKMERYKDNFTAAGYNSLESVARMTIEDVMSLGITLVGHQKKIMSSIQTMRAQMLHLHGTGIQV

Tyrosine-protein kinase Blk (Mus musculus), sequence (P16277 whole entry): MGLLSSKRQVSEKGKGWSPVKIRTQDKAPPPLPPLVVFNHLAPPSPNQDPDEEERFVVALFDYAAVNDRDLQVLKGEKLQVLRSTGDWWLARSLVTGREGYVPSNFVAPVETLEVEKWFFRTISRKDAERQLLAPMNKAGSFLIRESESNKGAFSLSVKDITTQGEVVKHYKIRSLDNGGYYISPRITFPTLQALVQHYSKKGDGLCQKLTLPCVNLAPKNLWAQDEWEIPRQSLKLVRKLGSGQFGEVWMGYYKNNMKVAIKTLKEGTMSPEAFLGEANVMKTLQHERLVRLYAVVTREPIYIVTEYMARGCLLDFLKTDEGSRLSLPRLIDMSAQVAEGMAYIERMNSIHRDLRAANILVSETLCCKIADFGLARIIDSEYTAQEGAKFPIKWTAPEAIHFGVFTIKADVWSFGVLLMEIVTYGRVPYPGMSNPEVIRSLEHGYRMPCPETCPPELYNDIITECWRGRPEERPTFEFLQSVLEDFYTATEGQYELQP
Calcium/calmodulin-dependent protein kinase type II subunit beta (Homo sapiens), sequence (Q13554 whole entry, the tested form may be a part): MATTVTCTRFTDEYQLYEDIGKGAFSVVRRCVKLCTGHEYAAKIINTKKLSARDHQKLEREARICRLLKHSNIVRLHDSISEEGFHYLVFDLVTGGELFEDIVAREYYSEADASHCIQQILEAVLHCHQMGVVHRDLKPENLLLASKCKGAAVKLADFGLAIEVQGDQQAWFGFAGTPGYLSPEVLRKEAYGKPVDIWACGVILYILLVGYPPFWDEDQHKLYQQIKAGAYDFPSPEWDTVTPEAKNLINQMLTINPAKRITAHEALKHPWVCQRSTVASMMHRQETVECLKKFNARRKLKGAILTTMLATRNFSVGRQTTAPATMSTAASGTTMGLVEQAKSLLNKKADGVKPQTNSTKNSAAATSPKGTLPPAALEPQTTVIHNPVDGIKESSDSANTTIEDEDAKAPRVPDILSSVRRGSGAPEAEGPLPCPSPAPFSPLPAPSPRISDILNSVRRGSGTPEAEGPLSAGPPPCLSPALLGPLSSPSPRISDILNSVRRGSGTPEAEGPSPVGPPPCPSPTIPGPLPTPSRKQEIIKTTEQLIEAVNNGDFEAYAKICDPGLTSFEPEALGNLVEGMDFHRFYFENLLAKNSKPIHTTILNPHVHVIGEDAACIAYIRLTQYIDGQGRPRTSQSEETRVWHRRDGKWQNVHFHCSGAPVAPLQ
Insulin-like growth factor 1 receptor (Homo sapiens), sequence (P08069 31-736 limits assumed): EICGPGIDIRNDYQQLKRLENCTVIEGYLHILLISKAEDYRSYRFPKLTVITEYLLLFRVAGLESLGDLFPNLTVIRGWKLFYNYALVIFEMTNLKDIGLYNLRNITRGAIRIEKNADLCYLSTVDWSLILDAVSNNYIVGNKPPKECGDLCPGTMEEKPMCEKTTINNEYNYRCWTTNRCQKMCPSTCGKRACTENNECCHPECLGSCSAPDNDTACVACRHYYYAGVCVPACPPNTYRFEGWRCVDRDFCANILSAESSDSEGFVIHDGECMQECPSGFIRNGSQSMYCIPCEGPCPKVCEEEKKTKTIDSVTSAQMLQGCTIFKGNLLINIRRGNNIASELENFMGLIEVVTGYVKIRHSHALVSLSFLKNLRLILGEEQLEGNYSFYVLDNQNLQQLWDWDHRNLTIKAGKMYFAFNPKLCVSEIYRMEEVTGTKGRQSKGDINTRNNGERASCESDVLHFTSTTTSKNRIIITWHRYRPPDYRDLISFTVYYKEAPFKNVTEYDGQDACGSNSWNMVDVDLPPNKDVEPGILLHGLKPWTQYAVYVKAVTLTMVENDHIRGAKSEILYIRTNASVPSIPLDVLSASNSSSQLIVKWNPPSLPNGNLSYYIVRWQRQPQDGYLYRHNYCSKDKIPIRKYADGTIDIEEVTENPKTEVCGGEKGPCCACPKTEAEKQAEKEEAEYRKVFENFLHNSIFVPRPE
Insulin-like growth factor 1 receptor (Homo sapiens), sequence (P08069 741-1367 limits assumed): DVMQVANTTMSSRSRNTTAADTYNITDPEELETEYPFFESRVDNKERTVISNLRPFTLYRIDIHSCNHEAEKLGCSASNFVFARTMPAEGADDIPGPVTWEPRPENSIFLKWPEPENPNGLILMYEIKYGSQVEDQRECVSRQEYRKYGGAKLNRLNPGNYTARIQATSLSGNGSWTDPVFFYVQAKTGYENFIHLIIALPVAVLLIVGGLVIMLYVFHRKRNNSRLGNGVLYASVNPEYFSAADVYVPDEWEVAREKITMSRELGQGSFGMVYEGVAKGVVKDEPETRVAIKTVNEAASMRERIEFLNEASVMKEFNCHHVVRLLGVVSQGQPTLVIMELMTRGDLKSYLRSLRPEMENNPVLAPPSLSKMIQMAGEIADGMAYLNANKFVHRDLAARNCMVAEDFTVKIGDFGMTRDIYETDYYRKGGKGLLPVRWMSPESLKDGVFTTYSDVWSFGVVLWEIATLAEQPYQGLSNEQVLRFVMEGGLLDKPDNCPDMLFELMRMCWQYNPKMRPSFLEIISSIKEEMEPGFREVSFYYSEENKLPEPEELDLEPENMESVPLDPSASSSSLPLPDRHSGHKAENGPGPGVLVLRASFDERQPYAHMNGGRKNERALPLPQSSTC
Dual specificity tyrosine-phosphorylation-regulated kinase 2 (Homo sapiens), sequence (Q92630 whole entry): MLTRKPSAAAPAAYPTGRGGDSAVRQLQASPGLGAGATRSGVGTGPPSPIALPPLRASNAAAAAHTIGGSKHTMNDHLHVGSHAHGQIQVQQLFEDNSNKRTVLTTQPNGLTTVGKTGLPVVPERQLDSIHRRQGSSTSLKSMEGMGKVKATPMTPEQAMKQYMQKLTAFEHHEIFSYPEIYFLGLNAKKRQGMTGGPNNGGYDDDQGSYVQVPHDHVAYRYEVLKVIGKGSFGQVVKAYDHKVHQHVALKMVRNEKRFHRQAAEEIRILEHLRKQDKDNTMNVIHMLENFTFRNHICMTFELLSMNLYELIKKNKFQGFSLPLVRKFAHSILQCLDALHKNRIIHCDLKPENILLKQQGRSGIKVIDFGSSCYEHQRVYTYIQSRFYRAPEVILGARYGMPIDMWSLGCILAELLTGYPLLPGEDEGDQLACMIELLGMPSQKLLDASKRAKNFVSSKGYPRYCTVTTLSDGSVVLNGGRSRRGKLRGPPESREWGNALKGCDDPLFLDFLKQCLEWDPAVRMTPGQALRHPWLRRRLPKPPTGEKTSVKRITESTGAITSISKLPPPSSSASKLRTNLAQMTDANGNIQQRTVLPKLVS
Mitogen-activated protein kinase kinase kinase 11 (Homo sapiens), sequence (Q16584 whole entry, looked up): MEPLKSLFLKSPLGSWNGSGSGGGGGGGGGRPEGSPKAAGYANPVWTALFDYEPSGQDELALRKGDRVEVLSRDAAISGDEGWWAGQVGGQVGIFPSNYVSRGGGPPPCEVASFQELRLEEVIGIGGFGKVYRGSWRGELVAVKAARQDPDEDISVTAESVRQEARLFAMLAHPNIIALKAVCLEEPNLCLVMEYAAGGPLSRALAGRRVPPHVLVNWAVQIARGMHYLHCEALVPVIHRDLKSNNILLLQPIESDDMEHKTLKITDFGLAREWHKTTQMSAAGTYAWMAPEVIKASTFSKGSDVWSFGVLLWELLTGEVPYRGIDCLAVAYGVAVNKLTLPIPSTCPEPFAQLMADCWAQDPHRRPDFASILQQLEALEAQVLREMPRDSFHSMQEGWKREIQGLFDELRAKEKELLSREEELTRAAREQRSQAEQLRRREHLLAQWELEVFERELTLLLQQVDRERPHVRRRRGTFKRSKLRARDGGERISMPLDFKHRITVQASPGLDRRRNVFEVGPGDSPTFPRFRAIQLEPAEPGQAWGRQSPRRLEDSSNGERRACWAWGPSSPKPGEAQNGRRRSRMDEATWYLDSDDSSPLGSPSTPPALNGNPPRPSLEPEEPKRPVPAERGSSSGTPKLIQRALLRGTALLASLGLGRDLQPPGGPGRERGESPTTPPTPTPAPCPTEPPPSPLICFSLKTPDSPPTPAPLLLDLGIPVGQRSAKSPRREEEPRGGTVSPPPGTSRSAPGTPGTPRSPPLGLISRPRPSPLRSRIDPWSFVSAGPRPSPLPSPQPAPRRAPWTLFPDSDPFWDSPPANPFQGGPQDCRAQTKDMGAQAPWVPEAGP

C[C@@H](c1ccccc1)n1nnc2cnc3ccc(-c4cnc5[nH]ccc5c4)cc3c21
Activity [1]: 79%
Activity [2]: 64%
Activity [3]: 95%
Activity [4]: 87%
Activity [5]: 12%
Activity [6]: 70%
Activity [7]: -60 to 66%
Activity [8]: 85%
Activity [9]: 35%
Activity (Mus musculus): 14%
Activity [10]: 72%
Activity [11]: 57%
Activity [12]: 94%
Activity [13]: 73%
Activity [14]: 66%
Activity [15]: 79%
Activity [16]: 45%
Activity [17]: 86%
